From US9120749B2, “Quinoline derivatives and MELK inhibitors containing the same” (ONCOTHERAPY SCIENCE, INC., priority 2010, dated 2015)
Structures can show the parent of a compound that is named as a salt.

Assays:
MELK = MELK (Homo sapiens, UniProt Q14680); test: Kinase assay: MELK activity, phosphorylation of FITC-labeled histone H3 peptide measured by IMAP fluorescence polarization; format: biochemical; conditions: read-out: IC50 (μM) (kinase assay)
Method in brief: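 Kinase reactions ran with or without test compound (final DMSO 1%) on a fluorescein-tagged H3 peptide. Progressive binding solution was added to terminate them. After a half-hour room-temperature incubation, polarization was measured.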

HT-1197 cells = test: Cell-based assay: anti-proliferative activity, Cell Counting Kit-8, 72 hours (HT-1197, negative control without MELK expression); conditions: Homo sapiens, HT1197, 72 h, 72 hours
Method in brief: (§1)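 First, lysates underwent western blotting with anti-MELK antibody to establish expression. Next, cells went into 96-well plates. Then candidate inhibitors were added. Finally, viability was determined by CCK-8 at 72 h and IC50 computed.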

A549 cells = test: Cell-based assay: anti-proliferative activity, Cell Counting Kit-8, 72 hours (A549); conditions: Homo sapiens, A549, 72 h, 72 hours
Method in brief: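 Cell Counting Kit-8 read-out of A549 growth after 72 hours of inhibitor exposure, cells plated in 96-well format. Values reported as IC50.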

DU4475 cells [1] = test: Cell-based assay: anti-proliferative activity, Cell Counting Kit-8, 72 hours (DU4475); conditions: Homo sapiens, DU-4475, 72 h
T47D cells = test: Cell-based assay: anti-proliferative activity, Cell Counting Kit-8, 72 hours (T47D); conditions: Homo sapiens, T47D, 72 h
Method in brief: as §1

DU4475 cells [2] = test: Cell-based assay: anti-proliferative activity, Cell Counting Kit-8, 72 hours (DU4475); conditions: Homo sapiens, DU-4475, 72 h; remark: listed apart in the source
[3] = HT1197 cells (negative control)
[4] = HT1197 cells (negative control, no MELK expression)

MELK, sequence (Q14680 whole entry, looked up): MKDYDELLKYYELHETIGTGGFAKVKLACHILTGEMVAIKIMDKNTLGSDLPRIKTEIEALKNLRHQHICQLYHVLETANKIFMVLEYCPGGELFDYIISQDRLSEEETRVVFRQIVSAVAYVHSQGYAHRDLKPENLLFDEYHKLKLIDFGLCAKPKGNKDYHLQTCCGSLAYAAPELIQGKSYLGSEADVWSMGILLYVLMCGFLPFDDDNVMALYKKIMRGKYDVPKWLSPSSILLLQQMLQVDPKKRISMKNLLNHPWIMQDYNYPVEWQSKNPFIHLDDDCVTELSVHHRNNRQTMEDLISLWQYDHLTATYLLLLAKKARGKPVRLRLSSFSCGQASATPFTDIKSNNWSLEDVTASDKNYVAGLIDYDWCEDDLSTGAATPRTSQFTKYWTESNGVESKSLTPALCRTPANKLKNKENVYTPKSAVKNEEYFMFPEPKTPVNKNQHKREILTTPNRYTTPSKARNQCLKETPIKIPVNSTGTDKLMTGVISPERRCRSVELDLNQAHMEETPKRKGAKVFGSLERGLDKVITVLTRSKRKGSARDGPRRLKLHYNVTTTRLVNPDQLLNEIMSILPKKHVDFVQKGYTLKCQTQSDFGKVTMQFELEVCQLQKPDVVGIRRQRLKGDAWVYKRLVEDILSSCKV

SMILES	IC50 (MELK)	IC50 (HT-1197 cells; [3])	IC50 (A549 cells)	IC50 (DU4475 cells [1])	IC50 (T47D cells)	IC50 (HT-1197 cells; [4])	IC50 (DU4475 cells [2])
CCCC(=O)c1cnc2ccc(-c3cc(F)c(O)c(Cl)c3)cc2c1N[C@H]1CC[C@H](CN(C)C)CC1 [Example 597, 1-{6-(3-Chloro-5-fluoro-4-hydroxyphenyl)-4-[trans-4-((dimethylamino)methyl)cyclohexylamino]quinolin-3-yl}butan-1-one]	0.0073 µM	1.1 µM	0.16 µM	0.083 µM	0.11 µM		
COc1cc(-c2ccc3ncc(C(=O)C4CC4)c(Nc4ccc(N5CCCC(N)C5)nc4)c3c2)cc(Cl)c1O (stereo not drawn) [Example 554, (4-(6-(3-aminopiperidin-1-yl)pyridin-3-ylamino)-6-(3-chloro-4-hydroxy-5-methoxyphenyl)quinolin-3-yl)(cyclopropyl)methanone]	0.0031 µM	1.9 µM	0.08 µM	0.025 µM	0.068 µM		
COc1cc(-c2ccc3ncc(C(=O)C4CC4)c(N[C@H]4CC[C@H](CN5CCC(OC)C5)CC4)c3c2)cc(Cl)c1O (stereo partly drawn) [Example 599]	0.005 µM	2.8 µM	0.54 µM	0.37 µM	0.51 µM		
C=CCN(CC=C)C1(C)CCC(Nc2c(C(=O)C3CC3)cnc3ccc(-c4cc(Cl)c(O)c(Cl)c4)cc23)CC1 (stereo not drawn) [Example 583, Cyclopropyl{4-[4-(diallylamino)-4-methylcyclohexylamino]-6-(3,5-dichloro-4-hydroxyphenyl)quinolin-3-yl}methanone]	0.089 µM	10 µM	3.1 µM	2.3 µM	2.6 µM		
O=C(c1cnc2cc(F)c(-c3cc(Cl)c(O)c(Cl)c3)cc2c1Nc1ccc(N2CCNCC2)nc1)C1CC1 [Example 559, cyclopropyl(6-(3,5-dichloro-4-hydroxyphenyl)-7-fluoro-4-(6-(piperazin-1-yl)pyridin-3-ylamino)quinolin-3-yl)methanone]	0.01 µM	3.2 µM	0.59 µM	0.35 µM	0.46 µM		
CC(=O)c1cnc2ccc(-c3cc(Cl)c(O)c(Cl)c3)cc2c1Nc1ccc(C(N)=O)cc1 [Example 545, 4-(3-acetyl-6-(3,5-dichloro-4-hydroxyphenyl)quinolin-4-ylamino)benzamide]	0.019 µM	16 µM	3.9 µM	0.56 µM	0.62 µM		
NC1CCCN(c2ncc(Nc3c(C(=O)C4CC4)cnc4ccc(-c5cc(F)c(O)c(Cl)c5)cc34)cn2)C1 (stereo not drawn) [Example 626, (4-(2-(3-aminopiperidin-1-yl)pyrimidin-5-ylamino)-6-(3-chloro-5-fluoro-4-hydroxyphenyl)quinolin-3-yl)(cyclopropyl)methanone]	0.0011 µM	0.05 µM	0.0073 µM	0.0048 µM	0.0051 µM		
CCCC(=O)c1cnc2ccc(-c3cnc(C#N)nc3)cc2c1Nc1ccc(CN(C)C)cc1 [Example 539, 5-(3-butyryl-4-(4-((dimethylamino)methyl)phenylamino)quinolin-6-yl)pyrimidine-2-carbonitrile]	0.0038 µM	1.6 µM	1.6 µM	1.5 µM	0.37 µM		
CN[C@H]1CC[C@H](Nc2c(C(=O)C3CC3)cnc3ccc(-c4cc(F)c(O)c(Cl)c4)cc23)CC1 [Example 523, {6-(3-Chloro-5-fluoro-4-hydroxyphenyl)-4-[trans-4-(methylamino)cyclohexylamino]quinolin-3-yl}(cyclopropyl)methanone]	0.0024 µM	1.3 µM	0.19 µM	0.024 µM	0.033 µM		
O=C(c1cnc2ccc(-c3cc(Cl)c(O)c(Cl)c3)cc2c1N[C@H]1CC[C@H](CN2CC[C@@H](F)C2)CC1)C1CC1 [Example 571, cyclopropyl(6-(3,5-dichloro-4-hydroxyphenyl)-4-((trans-4-(((R)-3-fluoropyrrolidin)methyl)cyclohexyl)amino)quinolin-3-yl)methanon]	0.0043 µM	0.39 µM	0.16 µM	0.08 µM	0.18 µM		
COc1cc(-c2ccc3ncc(C(=O)C4CC4)c(Nc4ccc(C(N)=O)cc4)c3c2)cc(Cl)c1O [Example 546, 4-(6-(3-chloro-4-hydroxy-5-methoxyphenyl)-3-(cyclopropanecarbonyl)quinolin-4-ylamino)benzamide]	0.04 µM	12 µM	1 µM	1 µM	1.1 µM		
O=C(c1cnc2ccc(-c3cc(Cl)c(O)c(Cl)c3)cc2c1N[C@H]1CC[C@H](CN2CCCC2)CC1)C1CC1 [Example 584, cyclopropyl(6-(3,5-dichloro-4-hydroxyphenyl)-4-((trans-4-(pyrrolidin-1-ylmethyl)cyclohexyl)amino)quinolin-3-yl)methanone]	0.0016 µM	0.86 µM	0.071 µM	0.053 µM	0.13 µM		
CN1CCN(C[C@H]2CC[C@H](Nc3c(C(=O)C4CC4)cnc4ccc(-c5cc(Cl)c(O)c(Cl)c5)cc34)CC2)CC1 [Example 618]		2.3 µM	0.21 µM	0.12 µM	0.23 µM		
CC(=O)c1cnc2ccc(-c3cc(Cl)c(O)c(Cl)c3)cc2c1Nc1ccc(CN2CCN(C)CC2)cc1 [Example 654, 1-(6-(3,5-dichloro-4-hydroxyphenyl)-4-(4-((4-methylpiperazin-1-yl)methyl)phenylamino)quinolin-3-yl)ethanone]	0.0082 µM		0.19 µM		0.091 µM	8.7 µM	0.11 µM
COC1CCN(C2CCC(Nc3c(C(=O)C4CC4)cnc4ccc(-c5cc(Cl)c(O)c(Cl)c5)cc34)CC2)C1 (stereo not drawn) [Example 661, cyclopropyl(6-(3,5-dichloro-4-hydroxyphenyl)-4-(4-(3-methoxypyrrolidin-1-yl)cyclohexylamino)quinolin-3-yl)methanone]	0.0018 µM		0.17 µM		0.25 µM	1.4 µM	0.1 µM
COc1cc(-c2ccc3ncc(C(C)=O)c(Nc4ccc(N5CCNCC5)nc4)c3c2)cc(Cl)c1O [Example 704, 1-(6-(3-chloro-4-hydroxy-5-methoxyphenyl)-4-(6-(piperazin-1-yl)pyridin-3-ylamino)quinolin-3-yl)ethanone hydrochloride]	0.0023 µM		0.2 µM		0.17 µM	2.1 µM	0.12 µM
COc1cc(-c2ccc3ncc(C(=O)C(C)C)c(Nc4ccc(N5CCNCC5)nc4)c3c2)cc(Cl)c1O [Example 680, 1-(6-(3-chloro-4-hydroxy-5-methoxyphenyl)-4-(6-(piperazin-1-yl)pyridin-3-ylamino)quinolin-3-yl)-2-methylpropan-1-one]	0.011 µM		1.3 µM		0.59 µM	2.4 µM	1 µM
COc1cc(-c2ccc3ncc(C(=O)C4CC4)c(Nc4ccc(OCCN(C)C)nc4)c3c2)cc(Cl)c1O [Example 712, (6-(3-chloro-4-hydroxy-5-methoxyphenyl)-4-(6-(2-(dimethylamino)ethoxy)pyridin-3-ylamino)quinolin-3-yl)(cyclopropyl)methanone]	0.0036 µM		0.31 µM		0.31 µM	5.4 µM	0.34 µM
CN(C)C1CCN(Cc2ccc(Nc3c(C(=O)C4CC4)cnc4ccc(-c5cc(F)c(O)c(Cl)c5)cc34)cc2)C1 (stereo not drawn) [Example 696, (6-(3-chloro-5-fluoro-4-hydroxyphenyl)-4-(4-((3-(dimethylamino)pyrrolidin-1-yl)methyl)phenylamino)quinolin-3-yl)(cyclopropyl)methanone]	0.012 µM		0.18 µM		0.46 µM	5.4 µM	0.17 µM
COc1cc(-c2ccc3ncc(C(=O)C4CC4)c(NC4CCC(N5CCC(OC)C5)CC4)c3c2)cc(Cl)c1O (stereo not drawn) [Example 687, (6-(3-chloro-4-hydroxy-5-methoxyphenyl)-4-(4-(3-methoxypyrrolidin-1-yl)cyclohexylamino)quinolin-3-yl)(cyclopropyl)methanone]	0.0033 µM		0.45 µM		0.63 µM	3.3 µM	0.33 µM
O=C(c1cnc2ccc(-c3cc(Cl)c(O)c(Cl)c3)cc2c1NC1CCNCC1)C1CC1 [Example 726, cyclopropyl(6-(3,5-dichloro-4-hydroxypheny)-4-(piperidin-4-ylamino)quinolin-3-yl)methanone]	0.0057 µM		0.52 µM		0.56 µM	2.4 µM	0.14 µM
CCC(=O)c1cnc2ccc(-c3cc(Cl)c(O)c(Cl)c3)cc2c1Nc1ccc(N2CCN(C)CC2)nc1 [Example 737, 1-(6-(3,5-dichloro-4-hydroxyphenyl)-4-(6-(4-methylpiperazin-1-yl)pyridin-3-ylamino)quinolin-3-yl)propan-1-one]	0.055 µM		0.29 µM		0.31 µM	10 µM	0.27 µM
CN(C)C1CCN(c2ccc(Nc3c(C(=O)C4CC4)cnc4ccc(-c5cc(F)c(O)c(Cl)c5)cc34)cn2)C1 (stereo not drawn) [Example 691, (6-(3-chloro-5-fluoro-4-hydroxyphenyl)-4-(6-(3-(dimethylamino)pyrrolidin-1-yl)pyridin-3-ylamino)quinolin-3-yl)(cyclopropyl)methanone]	0.012 µM		0.32 µM		0.18 µM	5.9 µM	0.22 µM
